# Molecular target: T1, ASGPR (Homo sapiens, UniProt P07306)
# T1 sequence (P07306 148-291 limits assumed): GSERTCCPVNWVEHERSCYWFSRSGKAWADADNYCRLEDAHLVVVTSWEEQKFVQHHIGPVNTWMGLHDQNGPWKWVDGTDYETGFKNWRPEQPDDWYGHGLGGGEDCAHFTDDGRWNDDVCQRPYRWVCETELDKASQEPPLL
# Experiment: SPR binding measurements for ASGPr ligands (Biacore 3000)
# Settings: biotinylated ASGPR immobilized, 25° C., each run separately reported or n and std dev noted
# Method: SPR Binding Measurements for ASGPr Ligands:
# All SPR measurements with compounds were performed using a Biacore 3000 (GE Healthcare) at 25° C. Biotinylated ASGPR was immobilized typically at 2000-3000 resonance units (Ru) using either SA sensor chips (GE Healthcare) or custom sensor chips with Neutravidin (Pierce Biochemical) immobilized by standard amine coupling to CM5 sensor chips (GE Healthcare). The running buffer was HBS (10 mM HEPES, 150 mM NaCl), 20 mM CaCl2, 0.01% p20, 3% DMSO or 50 mM tris, 150 mM NaCl, 50 mM CaCl2, 0.01% p20, 3% DMSO pH 7.5. Compounds were diluted into running buffer at a concentration of 900 uM and serially diluted 3 fold to 3.7 uM. Compound solutions were injected at 50 ul/min for 1 min followed by a 1 min dissociation in duplicate for each concentration. For the multimeric conjugates (dimers, trimers), the conjugates were diluted in running buffer to concentrations of 100 nM or 10 nM and serially diluted. Conjugates were injected for 2 min and off rates were detected for 300 or 600 sec. After completion of off phase data the compounds were displaced using an injection of 900 uM GalNAc returning the receptor surface to the free state. […] KDs were determined by fitting the steady state binding responses for the compounds and single conjugated molecules in Scrubber2. […]
compound,measurement,value
"CN(C(=O)OC(C)(C)C)[C@H]1[C@H]2OC[C@](CO)(O2)[C@H](O)[C@@H]1O [Compound 31, tert-butyl [(1S,2R,3R,4R,5S)-2,3-dihydroxy-1-(hydroxymethyl)-6,8-dioxabicyclo[3.2.1]oct-4-yl]methylcarbamate]",Kd,12.3 µM

# — patent US10851367B2, “Tissue-specific genome engineering using CRISPR-Cas9” (Pfizer Inc., priority 2015, dated 2020)
